Measurements: the NIST ThermoML archive (doi:10.1016/j.fluid.2013.02.005)

What was measured:
[1] = xn = mol fraction of the nth substance listed; conditions: Maximal bubble pressure
[2] = for surface tension liquid-gas: Maximal bubble pressure; for mass density: 298.15 K, 101.33 kPa, Vibrating tube method; for mass density / vapor or sublimation pressure: Liquid; for vapor or sublimation pressure: Ebulliometric method (Recirculating still)
[3] = Boiling temperature at pressure P; conditions: 101.33 kPa; Liquid; Ebulliometric method (Recirculating still)
[4] = refractive index (Na D-line) (dimensionless); conditions: 298.15 K; 101.33 kPa; Liquid; Standard Abbe refractometry

Cc1ccc(C)o1 [2,5-dimethylfuran] + CC(C)OC(C)C
surface tension liquid-gas [mN/m], [1]
Conditions | 283.15 K | 330.15 K
x2 = 0 | 26.34 | 20.58
x2 = 0.067 | 24.79 | –
x2 = 0.112 | 24.27 | –
x2 = 0.153 | – | 19.28
x2 = 0.192 | – | 18.93
x2 = 0.234 | 23.31 | –
x2 = 0.245 | – | 18.31
x2 = 0.323 | 22.56 | –
x2 = 0.342 | – | 17.66
x2 = 0.42 | 21.87 | –
x2 = 0.434 | – | 17.01
x2 = 0.52 | 21.31 | –
x2 = 0.543 | – | 16.48
x2 = 0.626 | 20.86 | –
x2 = 0.664 | – | 15.79
x2 = 0.782 | – | 15.16
x2 = 0.897 | – | 14.65

Cc1ccc(C)o1 [2,5-dimethylfuran]
[2]
Conditions | surface tension liquid-gas [mN/m] | vapor or sublimation pressure [kPa]
283.15 K | 26.34 | –
303.15 K | 24.05 | –
330.15 K | 20.58 | –
345.24 K | – | 50
357.21 K | – | 75
364.37 K | – | 94

Conditions | Boiling temperature at pressure P [°C] | mass density [kg/m3] | refractive index
[2] | – | 895.63 | –
[3] | 93.68 | – | –
[4] | – | – | 1.44012

CC(C)OC(C)C [diisopropyl ether]
[2]
Conditions | surface tension liquid-gas [mN/m] | vapor or sublimation pressure [kPa]
283.15 K | 18.88 | –
303.15 K | 16.7 | –
307.64 K | – | 30.01
311.53 K | – | 35.01
314.98 K | – | 40.01
318.08 K | – | 45.01
320.94 K | – | 50.01
321.03 K | – | 50
323.56 K | – | 55.01
326 K | – | 60.01
328.29 K | – | 65.01
330.15 K | 13.88 | –
330.45 K | – | 70.01
332.48 K | – | 75.01
332.65 K | – | 75
334.41 K | – | 80.01
336.23 K | – | 85.01
339.57 K | – | 94
339.65 K | – | 95.01
341.52 K | – | 100.89

Conditions | Boiling temperature at pressure P [°C] | mass density [kg/m3] | refractive index
[2] | – | 718.75 | –
[3] | 68.52 | – | –
[4] | – | – | 1.36652

CC(C)OC(C)C [diisopropyl ether] + Cc1ccc(C)o1
[1], x1 = 1
Conditions | surface tension liquid-gas [mN/m]
283.15 K | 18.88
330.15 K | 13.88
